Source: PubChem BioAssay AID1259407 (Chemical Carcinogenesis Research Information System (CCRIS), 2018)
Calls of active or inactive are those of the source. How the calls were made is not given here.

System: CCRIS mutagenicity, Ames/micronucleus/aberration tests
Assay: CCRIS mutagenicity studies
[1] = Test System: AMES SALMONELLA TYPHIMURIUM, Strain/Indicator: TA98, Metabolic Activation: NONE, Method: PREINCUBATION
[2] = Test System: AMES SALMONELLA TYPHIMURIUM, Strain/Indicator: TA100, Metabolic Activation: NONE, Method: PREINCUBATION
[3] = Test System: AMES SALMONELLA TYPHIMURIUM, Strain/Indicator: TA1535, Metabolic Activation: NONE, Method: PREINCUBATION
[4] = Test System: AMES SALMONELLA TYPHIMURIUM, Strain/Indicator: TA1537, Metabolic Activation: NONE, Method: PREINCUBATION
[5] = Test System: AMES SALMONELLA TYPHIMURIUM, Strain/Indicator: TA98, Metabolic Activation: NONE, Method: STANDARD PLATE
[6] = Test System: AMES SALMONELLA TYPHIMURIUM, Strain/Indicator: TA98, Metabolic Activation: RAT, LIVER, S-9, AROCLOR 1254, Method: STANDARD PLATE
[7] = Test System: AMES SALMONELLA TYPHIMURIUM, Strain/Indicator: TA100, Metabolic Activation: NONE, Method: STANDARD PLATE
[8] = Test System: AMES SALMONELLA TYPHIMURIUM, Strain/Indicator: TA100, Metabolic Activation: RAT, LIVER, S-9, AROCLOR 1254, Method: STANDARD PLATE

## C1CNCCN1
Test System: AMES SALMONELLA TYPHIMURIUM, Strain/Indicator: TA98, Metabolic Activation: HAMSTER, LIVER, S-9, AROCLOR 1254, Method: PREINCUBATION
  mutagenic call: inactive; negative
[1]
  mutagenic call: inactive; negative
Test System: AMES SALMONELLA TYPHIMURIUM, Strain/Indicator: TA98, Metabolic Activation: RAT, LIVER, S-9, AROCLOR 1254, Method: PREINCUBATION
  mutagenic call: inactive; negative
Test System: AMES SALMONELLA TYPHIMURIUM, Strain/Indicator: TA98, Metabolic Activation: RAT, LIVER, S-9, PCB, Method: PREINCUBATION
  mutagenic call: inactive; negative
Test System: AMES SALMONELLA TYPHIMURIUM, Strain/Indicator: TA100, Metabolic Activation: HAMSTER, LIVER, S-9, AROCLOR 1254, Method: PREINCUBATION
  mutagenic call: inactive; negative
[2]
  mutagenic call: inactive; negative
Test System: AMES SALMONELLA TYPHIMURIUM, Strain/Indicator: TA100, Metabolic Activation: RAT, LIVER, S-9, AROCLOR 1254, Method: PREINCUBATION
  mutagenic call: inactive; negative
Test System: AMES SALMONELLA TYPHIMURIUM, Strain/Indicator: TA100, Metabolic Activation: RAT, LIVER, S-9, PCB, Method: PREINCUBATION
  mutagenic call: inactive; negative
Test System: AMES SALMONELLA TYPHIMURIUM, Strain/Indicator: TA1535, Metabolic Activation: HAMSTER, LIVER, S-9, AROCLOR 1254, Method: PREINCUBATION
  mutagenic call: inactive; negative
[3]
  mutagenic call: inactive; negative
Test System: AMES SALMONELLA TYPHIMURIUM, Strain/Indicator: TA1535, Metabolic Activation: RAT, LIVER, S-9, AROCLOR 1254, Method: PREINCUBATION
  mutagenic call: inactive; negative
Test System: AMES SALMONELLA TYPHIMURIUM, Strain/Indicator: TA1537, Metabolic Activation: HAMSTER, LIVER, S-9, AROCLOR 1254, Method: PREINCUBATION
  mutagenic call: inactive; negative
[4]
  mutagenic call: inactive; negative
Test System: AMES SALMONELLA TYPHIMURIUM, Strain/Indicator: TA1537, Metabolic Activation: RAT, LIVER, S-9, AROCLOR 1254, Method: PREINCUBATION
  mutagenic call: inactive; negative

## CC1=C(/C=C/C(C)=C/C=C/C(C)=C/C=C/C=C(C)/C=C/C=C(C)/C=C/C2=C(C)C(=O)CCC2(C)C)C(C)(C)CCC1=O
[5]
  mutagenic call: inactive; negative
[6]
  mutagenic call: inactive; negative
[7]
  mutagenic call: inactive; negative
[8]
  mutagenic call: inactive; negative

## COCc1ccc([N+]#N)cc1
Test System: AMES SALMONELLA TYPHIMURIUM, Strain/Indicator: TA102, Metabolic Activation: NONE, Method: STANDARD PLATE
  mutagenic call: active; positive
Test System: CHINESE HAMSTER V-79, Strain/Indicator: V-79/6-THIOGUANINE, Metabolic Activation: NONE
  mutagenic call: active; positive

## CN(C)C(=S)N(C)C
Test System: AMES SALMONELLA TYPHIMURIUM, Strain/Indicator: TA98, Metabolic Activation: HAMSTER, LIVER, S-9, AROCLOR 1254 (10%), Method: PREINCUBATION
  mutagenic call: inactive; negative
[1]
  mutagenic call: inactive; negative
Test System: AMES SALMONELLA TYPHIMURIUM, Strain/Indicator: TA98, Metabolic Activation: RAT, LIVER, S-9, AROCLOR 1254 (10%), Method: PREINCUBATION
  mutagenic call: inactive; negative
Test System: AMES SALMONELLA TYPHIMURIUM, Strain/Indicator: TA100, Metabolic Activation: HAMSTER, LIVER, S-9, AROCLOR 1254 (10%), Method: PREINCUBATION
  mutagenic call: inactive; negative
[2]
  mutagenic call: inactive; negative
Test System: AMES SALMONELLA TYPHIMURIUM, Strain/Indicator: TA100, Metabolic Activation: RAT, LIVER, S-9, AROCLOR 1254 (10%), Method: PREINCUBATION
  mutagenic call: inactive; negative
Test System: AMES SALMONELLA TYPHIMURIUM, Strain/Indicator: TA1535, Metabolic Activation: HAMSTER, LIVER, S-9, AROCLOR 1254 (10%), Method: PREINCUBATION
  mutagenic call: inactive; negative
[3]
  mutagenic call: inactive; negative
Test System: AMES SALMONELLA TYPHIMURIUM, Strain/Indicator: TA1535, Metabolic Activation: RAT, LIVER, S-9, AROCLOR 1254 (10%), Method: PREINCUBATION
  mutagenic call: inactive; negative
Test System: AMES SALMONELLA TYPHIMURIUM, Strain/Indicator: TA1537, Metabolic Activation: HAMSTER, LIVER, S-9, AROCLOR 1254 (10%), Method: PREINCUBATION
  mutagenic call: inactive; negative
[4]
  mutagenic call: inactive; negative
Test System: AMES SALMONELLA TYPHIMURIUM, Strain/Indicator: TA1537, Metabolic Activation: RAT, LIVER, S-9, AROCLOR 1254 (10%), Method: PREINCUBATION
  mutagenic call: inactive; negative

## Nc1n[nH]c(=S)s1
Test System: AMES SALMONELLA TYPHIMURIUM, Strain/Indicator: TA98, Metabolic Activation: HAMSTER, LIVER, S-9, AROCLOR 1254, Method: STANDARD PLATE
  mutagenic call: inactive; negative
[5]
  mutagenic call: inactive; negative
[6]
  mutagenic call: inactive; negative
Test System: AMES SALMONELLA TYPHIMURIUM, Strain/Indicator: TA100, Metabolic Activation: HAMSTER, LIVER, S-9, AROCLOR 1254, Method: STANDARD PLATE
  mutagenic call: inactive; negative
[7]
  mutagenic call: inactive; negative
[8]
  mutagenic call: inactive; negative
Test System: AMES SALMONELLA TYPHIMURIUM, Strain/Indicator: TA1535, Metabolic Activation: HAMSTER, LIVER, S-9, AROCLOR 1254, Method: STANDARD PLATE
  mutagenic call: inactive; negative
Test System: AMES SALMONELLA TYPHIMURIUM, Strain/Indicator: TA1535, Metabolic Activation: NONE, Method: STANDARD PLATE
  mutagenic call: inactive; negative
Test System: AMES SALMONELLA TYPHIMURIUM, Strain/Indicator: TA1535, Metabolic Activation: RAT, LIVER, S-9, AROCLOR 1254, Method: STANDARD PLATE
  mutagenic call: inactive; negative
Test System: AMES SALMONELLA TYPHIMURIUM, Strain/Indicator: TA1537, Metabolic Activation: HAMSTER, LIVER, S-9, AROCLOR 1254, Method: STANDARD PLATE
  mutagenic call: inactive; negative
Test System: AMES SALMONELLA TYPHIMURIUM, Strain/Indicator: TA1537, Metabolic Activation: NONE, Method: STANDARD PLATE
  mutagenic call: inactive; negative
Test System: AMES SALMONELLA TYPHIMURIUM, Strain/Indicator: TA1537, Metabolic Activation: RAT, LIVER, S-9, AROCLOR 1254, Method: STANDARD PLATE
  mutagenic call: inactive; negative
Test System: AMES SALMONELLA TYPHIMURIUM, Strain/Indicator: TA1538, Metabolic Activation: HAMSTER, LIVER, S-9, AROCLOR 1254, Method: STANDARD PLATE
  mutagenic call: inactive; negative
Test System: AMES SALMONELLA TYPHIMURIUM, Strain/Indicator: TA1538, Metabolic Activation: NONE, Method: STANDARD PLATE
  mutagenic call: inactive; negative
Test System: AMES SALMONELLA TYPHIMURIUM, Strain/Indicator: TA1538, Metabolic Activation: RAT, LIVER, S-9, AROCLOR 1254, Method: STANDARD PLATE
  mutagenic call: inactive; negative
Test System: MOUSE LYMPHOMA, Strain/Indicator: L5178Y (TK+/TK-), Metabolic Activation: NONE, Method: SUSPENSION/PLATE
  mutagenic call: active; positive. reevaluation of results: positive
Test System: Mouse lymphoma, Strain/Indicator: L5178Y (tk+/tk-), Metabolic Activation: Rat, Liver, S-9, Aroclor 1254, Method: Suspension/plate
  mutagenic call: inactive; negative

## Nc1cc([N+](=O)[O-])cc([N+](=O)[O-])c1CO
End Point: In vitro chromosomal aberrations, Test System: V79 Chinese hamster fibroblasts, Metabolic Activation: None
  mutagenic call: inactive; negative
Test System: Ames Salmonella typhimurium, Strain/Indicator: TA98, Metabolic Activation: None, Method: Standard plate
  mutagenic call: active; positive
Test System: Ames Salmonella typhimurium, Strain/Indicator: TA98, Metabolic Activation: Rat, Liver, S-9, Method: Standard plate
  mutagenic call: active; positive
Test System: Ames Salmonella typhimurium, Strain/Indicator: TA98NR, Metabolic Activation: None, Method: Standard plate
  mutagenic call: active; positive
Test System: Ames Salmonella typhimurium, Strain/Indicator: TA100, Metabolic Activation: None, Method: Standard plate
  mutagenic call: active; positive
Test System: Ames Salmonella typhimurium, Strain/Indicator: TA100, Metabolic Activation: Rat, Liver, S-9, Method: Standard plate
  mutagenic call: active; positive
